According to the NIST ThermoML archive (doi:10.1016/j.jct.2005.07.011):

Experiment: excess molar enthalpy (molar enthalpy of mixing); xn = mol fraction of the nth substance listed
Conditions: Liquid, Flow calorimetry

COC(=O)OC [dimethyl carbonate] + CCCCO
Conditions | excess molar enthalpy [kcal/mol]
298.15 K, 1000 kPa, x1 = 0.05 | 0.127
298.15 K, 1000 kPa, x1 = 0.1 | 0.232
298.15 K, 1000 kPa, x1 = 0.15 | 0.317
298.15 K, 1000 kPa, x1 = 0.2 | 0.383
298.15 K, 1000 kPa, x1 = 0.25 | 0.435
298.15 K, 1000 kPa, x1 = 0.3 | 0.4733
298.15 K, 1000 kPa, x1 = 0.35 | 0.5011
298.15 K, 1000 kPa, x1 = 0.4 | 0.5163
298.15 K, 1000 kPa, x1 = 0.45 | 0.5253
298.15 K, 1000 kPa, x1 = 0.5 | 0.5258
298.15 K, 1000 kPa, x1 = 0.55 | 0.5155
298.15 K, 1000 kPa, x1 = 0.6 | 0.4945
298.15 K, 1000 kPa, x1 = 0.65 | 0.4683
298.15 K, 1000 kPa, x1 = 0.7 | 0.4353
298.15 K, 1000 kPa, x1 = 0.75 | 0.3916
298.15 K, 1000 kPa, x1 = 0.8 | 0.3364
298.15 K, 1000 kPa, x1 = 0.85 | 0.2695
298.15 K, 1000 kPa, x1 = 0.9 | 0.1907
298.15 K, 1000 kPa, x1 = 0.95 | 0.09904
313.15 K, 100 kPa, x1 = 0.049 | 0.125
313.15 K, 100 kPa, x1 = 0.099 | 0.235
313.15 K, 100 kPa, x1 = 0.149 | 0.329
313.15 K, 100 kPa, x1 = 0.199 | 0.404
313.15 K, 100 kPa, x1 = 0.25 | 0.4635
313.15 K, 100 kPa, x1 = 0.299 | 0.5061
313.15 K, 100 kPa, x1 = 0.351 | 0.5395
313.15 K, 100 kPa, x1 = 0.4 | 0.5598
313.15 K, 100 kPa, x1 = 0.449 | 0.5716
313.15 K, 100 kPa, x1 = 0.499 | 0.5732
313.15 K, 100 kPa, x1 = 0.549 | 0.5667
313.15 K, 100 kPa, x1 = 0.6 | 0.5459
313.15 K, 100 kPa, x1 = 0.651 | 0.5157
313.15 K, 100 kPa, x1 = 0.699 | 0.4762
313.15 K, 100 kPa, x1 = 0.751 | 0.427
313.15 K, 100 kPa, x1 = 0.8 | 0.368
313.15 K, 100 kPa, x1 = 0.85 | 0.299
313.15 K, 100 kPa, x1 = 0.899 | 0.204
313.15 K, 100 kPa, x1 = 0.949 | 0.108
313.15 K, 1000 kPa, x1 = 0.049 | 0.127
313.15 K, 1000 kPa, x1 = 0.099 | 0.238
313.15 K, 1000 kPa, x1 = 0.149 | 0.331
313.15 K, 1000 kPa, x1 = 0.199 | 0.406
313.15 K, 1000 kPa, x1 = 0.25 | 0.4659
313.15 K, 1000 kPa, x1 = 0.299 | 0.5082
313.15 K, 1000 kPa, x1 = 0.35 | 0.5426
313.15 K, 1000 kPa, x1 = 0.399 | 0.5625
313.15 K, 1000 kPa, x1 = 0.449 | 0.572
313.15 K, 1000 kPa, x1 = 0.499 | 0.5728
313.15 K, 1000 kPa, x1 = 0.549 | 0.5639
313.15 K, 1000 kPa, x1 = 0.6 | 0.5428
313.15 K, 1000 kPa, x1 = 0.651 | 0.5125
313.15 K, 1000 kPa, x1 = 0.699 | 0.4734
313.15 K, 1000 kPa, x1 = 0.751 | 0.4239
313.15 K, 1000 kPa, x1 = 0.8 | 0.368
313.15 K, 1000 kPa, x1 = 0.849 | 0.296
313.15 K, 1000 kPa, x1 = 0.899 | 0.206
313.15 K, 1000 kPa, x1 = 0.949 | 0.105
313.15 K, 10000 kPa, x1 = 0.049 | 0.124
313.15 K, 10000 kPa, x1 = 0.101 | 0.24
313.15 K, 10000 kPa, x1 = 0.151 | 0.332
313.15 K, 10000 kPa, x1 = 0.202 | 0.405
313.15 K, 10000 kPa, x1 = 0.249 | 0.4604
313.15 K, 10000 kPa, x1 = 0.3 | 0.5061
313.15 K, 10000 kPa, x1 = 0.349 | 0.5364
313.15 K, 10000 kPa, x1 = 0.401 | 0.5586
313.15 K, 10000 kPa, x1 = 0.451 | 0.5694
313.15 K, 10000 kPa, x1 = 0.501 | 0.5711
313.15 K, 10000 kPa, x1 = 0.551 | 0.5597
313.15 K, 10000 kPa, x1 = 0.602 | 0.5408
313.15 K, 10000 kPa, x1 = 0.65 | 0.513
313.15 K, 10000 kPa, x1 = 0.75 | 0.4247
313.15 K, 10000 kPa, x1 = 0.799 | 0.368
313.15 K, 10000 kPa, x1 = 0.849 | 0.293
313.15 K, 10000 kPa, x1 = 0.899 | 0.21
313.15 K, 10000 kPa, x1 = 0.949 | 0.105
328.15 K, 1000 kPa, x1 = 0.05 | 0.129
328.15 K, 1000 kPa, x1 = 0.1 | 0.243
328.15 K, 1000 kPa, x1 = 0.15 | 0.341
328.15 K, 1000 kPa, x1 = 0.2 | 0.418
328.15 K, 1000 kPa, x1 = 0.25 | 0.4826
328.15 K, 1000 kPa, x1 = 0.3 | 0.531
328.15 K, 1000 kPa, x1 = 0.35 | 0.5685
328.15 K, 1000 kPa, x1 = 0.4 | 0.5957
328.15 K, 1000 kPa, x1 = 0.45 | 0.6082
328.15 K, 1000 kPa, x1 = 0.5 | 0.6094
328.15 K, 1000 kPa, x1 = 0.55 | 0.602
328.15 K, 1000 kPa, x1 = 0.6 | 0.5832
328.15 K, 1000 kPa, x1 = 0.65 | 0.5542
328.15 K, 1000 kPa, x1 = 0.7 | 0.513
328.15 K, 1000 kPa, x1 = 0.75 | 0.4578
328.15 K, 1000 kPa, x1 = 0.8 | 0.3918
328.15 K, 1000 kPa, x1 = 0.85 | 0.3191
328.15 K, 1000 kPa, x1 = 0.9 | 0.2231
328.15 K, 1000 kPa, x1 = 0.95 | 0.114
